Experimental data from patent US7205295B2, “Benzoxazin-3-ones and derivatives thereof as therapeutic agents” (Warner-Lambert Company LLC, priority 2002, dated 2007).

molecular target: T1, PI3Kγ (p101/p110γ protein) (Homo sapiens, UniProt P48736); experiment: PI3Kγ In Vitro Kinase Assay; assay type: biochemical; conditions: purified recombinant p101/p110γ with G protein β1/γ2 subunits; 20 μM ATP, 25 μM PIP2; 20 minutes at room temperature
T1 construct: HA; made in house; host or cells: Spodoptera frugiperda (Sf9) cells, baculovirus co-infection
T1 sequence (P48736 whole entry, species assumed): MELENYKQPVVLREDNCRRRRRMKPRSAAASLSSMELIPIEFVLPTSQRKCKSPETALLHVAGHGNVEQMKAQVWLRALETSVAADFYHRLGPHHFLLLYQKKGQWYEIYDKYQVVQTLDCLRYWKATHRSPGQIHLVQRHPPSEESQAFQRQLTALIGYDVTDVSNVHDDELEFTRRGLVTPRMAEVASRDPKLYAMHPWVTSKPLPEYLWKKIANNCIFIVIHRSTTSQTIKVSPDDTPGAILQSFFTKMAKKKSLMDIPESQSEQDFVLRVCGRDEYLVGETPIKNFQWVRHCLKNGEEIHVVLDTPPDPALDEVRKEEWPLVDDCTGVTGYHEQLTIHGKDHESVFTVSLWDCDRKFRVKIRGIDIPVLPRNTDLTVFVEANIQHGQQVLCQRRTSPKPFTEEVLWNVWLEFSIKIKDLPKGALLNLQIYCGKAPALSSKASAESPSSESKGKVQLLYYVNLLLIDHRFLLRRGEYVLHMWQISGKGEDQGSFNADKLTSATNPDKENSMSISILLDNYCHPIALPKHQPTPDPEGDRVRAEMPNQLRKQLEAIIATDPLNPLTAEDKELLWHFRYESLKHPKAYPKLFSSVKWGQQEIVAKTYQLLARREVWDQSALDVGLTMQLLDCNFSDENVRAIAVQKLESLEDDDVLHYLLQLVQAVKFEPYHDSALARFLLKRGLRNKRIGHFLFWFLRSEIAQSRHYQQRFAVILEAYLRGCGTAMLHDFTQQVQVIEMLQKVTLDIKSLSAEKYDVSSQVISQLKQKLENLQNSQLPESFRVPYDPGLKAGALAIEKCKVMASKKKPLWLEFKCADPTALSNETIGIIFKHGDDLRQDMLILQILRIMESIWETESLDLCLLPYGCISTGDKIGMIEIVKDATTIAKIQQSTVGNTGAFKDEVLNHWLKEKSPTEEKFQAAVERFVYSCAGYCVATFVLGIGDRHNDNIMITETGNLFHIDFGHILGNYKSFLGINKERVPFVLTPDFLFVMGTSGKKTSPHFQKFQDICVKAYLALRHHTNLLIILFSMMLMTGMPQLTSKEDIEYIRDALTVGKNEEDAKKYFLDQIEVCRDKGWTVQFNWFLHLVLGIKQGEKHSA
T1 sequence (Q8WYR1 whole entry partner, species assumed): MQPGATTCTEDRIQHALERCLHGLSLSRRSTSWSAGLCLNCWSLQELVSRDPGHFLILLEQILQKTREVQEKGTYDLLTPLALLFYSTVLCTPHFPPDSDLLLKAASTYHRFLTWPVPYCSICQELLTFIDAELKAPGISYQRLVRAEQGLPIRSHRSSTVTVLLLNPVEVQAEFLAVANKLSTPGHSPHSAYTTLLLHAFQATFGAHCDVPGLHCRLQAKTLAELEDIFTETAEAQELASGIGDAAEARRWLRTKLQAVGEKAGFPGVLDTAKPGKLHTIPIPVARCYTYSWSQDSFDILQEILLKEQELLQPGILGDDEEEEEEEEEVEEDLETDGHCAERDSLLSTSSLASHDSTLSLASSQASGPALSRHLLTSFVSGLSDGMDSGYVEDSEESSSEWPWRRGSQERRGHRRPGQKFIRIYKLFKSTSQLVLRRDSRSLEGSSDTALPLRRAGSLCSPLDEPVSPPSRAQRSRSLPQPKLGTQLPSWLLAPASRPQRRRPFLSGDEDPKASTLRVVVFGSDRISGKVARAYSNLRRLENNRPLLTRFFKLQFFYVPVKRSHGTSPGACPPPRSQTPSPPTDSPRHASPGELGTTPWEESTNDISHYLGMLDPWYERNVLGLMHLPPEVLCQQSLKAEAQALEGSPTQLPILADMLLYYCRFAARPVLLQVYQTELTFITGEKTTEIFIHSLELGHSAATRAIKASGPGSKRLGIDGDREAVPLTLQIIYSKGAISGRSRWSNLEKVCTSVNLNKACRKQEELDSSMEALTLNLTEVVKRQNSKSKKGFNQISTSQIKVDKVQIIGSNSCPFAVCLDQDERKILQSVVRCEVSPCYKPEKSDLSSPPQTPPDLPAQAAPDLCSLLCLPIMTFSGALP
Summary of the method: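 Sf9-expressed, purified human p101/p110γ (2.7 nM) was activated by Gβ1/γ2 (57.7 nM) and reacted with 20 μM ATP plus [γ-32P]ATP on PIP2 (25 μM)/PE (300 μM) micelles with 10 mM MgCl2 in HEPES buffer. Reactions ran 20 min at room temperature. Filter-captured radiolabeled PIP3 was counted by scintillation.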

Row | Compound | IC50 [nM]
1 | O=C(O)CN1C(=O)C(=Cc2cc(F)c3c(c2)N(Cc2ccc(F)c(Cl)c2)C(=O)CO3)SC1=S [Example 296, {5-[4-(3-Chloro-4-fluoro-benzyl)-8-fluoro-3-oxo-3,4-dihydro-2H-benzo[1,4]oxazin-6-ylmethylene]-4-oxo-2-thioxo-thiazolidin-3-yl}-acetic acid; compound with ethane-1,2-diamine] | 3850
2 | CC(C)(C)c1cc(CN2C(=O)COc3c(F)cc(C=C4SC(=S)NC4=O)cc32)cc(C(C)(C)C)n1 [Example 220, 4-(2,6-Di-tert-butyl-pyridin-4-ylmethyl)-8-fluoro-6-(4-oxo-2-thioxo-thiazolidin-5-ylidenemethyl)-4H-1,4-benzoxazin-3-one] | 495
3 | COc1cc(C=C2SC(=S)NC2=O)cc2c1OCC(=O)N2Cc1cc(C(C)(C)C)cc(C(C)(C)C)c1 [Example 51, 4-(3,5-Di-tert-butyl-benzyl)-8-methoxy-6-(4-oxo-2-thioxo-thiazolidin-5-ylidenemethyl)-4H-1,4-benzoxazin-3-one] | 165
4 | CC1CC(C)CN(CCCN2C(=O)COc3c(F)cc(C=C4SC(=S)NC4=O)cc32)C1 (stereo not drawn) [Example 244, 4-[3-(3,5-Dimethyl-piperidin-1-yl)-propyl]-8-fluoro-6-(4-oxo-2-thioxo-thiazolidin-5-ylidenemethyl)-4H-benzo[1,4]oxazin-3-one] | 185
5 | Cc1cc(CN2C(=O)COc3ccc(C=C4SC(=S)NC4=O)cc32)cc(C)c1CN1CCOCC1 [Example 39, 4-(3,5-Dimethyl-4-morpholin-4-ylmethyl-benzyl)-6-(4-oxo-2-thioxo-thiazolidin-5-ylidenemethyl)-4H-1,4-benzoxazin-3-one] | 335
6 | CC(C)(C)c1cc(CN2C(=O)COc3ccc(C=C4SC(=O)NC4=O)cc32)cc(C(C)(C)C)c1 [Example 85, 5-[4-(3,5-Di-tert-butyl-benzyl)-3-oxo-3,4-dihydro-2H-1,4-benzoxazin-6-ylmethylene]-thiazolidine-2,4-dione] | 21
7 | O=C1NC(=S)S/C1=C\c1cc(F)c2c(c1)N(Cc1cc(C(F)(F)F)cc(C(F)(F)F)c1)C(=O)CO2 [Example 273, 4-(3,5-Bis-trifluoromethyl-benzyl)-8-fluoro-6-[4-oxo-2-thioxo-thiazolidin-(5Z)-ylidenemethyl]-4H-benzo[1,4]oxazin-3-one] | 121
8 | O=C1NC(=S)SC1=Cc1cc(F)c2c(c1)N(Cc1cc(Br)cc(Br)c1)C(=O)CO2 [Example 297, 4-(3,5-Dibromo-benzyl)-8-fluoro-6-(4-oxo-2-thioxo-thiazolidin-5-ylidenemethyl)-4H-benzo[1,4]oxazin-3-one] | 36
9 | Cc1cc(CN2C(=O)COc3ccc(C=C4SC(=S)NC4=O)cc32)cc(-c2ccsc2)c1 [Example 116, 4-(3-Methyl-5-thiophene-3-yl-benzyl)-6-(4-oxo-2-thioxo-thiazolidin-5-ylidenemethyl)-4H-benzo[1,4]oxazin-3-one] | 24
10 | Cc1cc(C)cc(C(C)N2C(=O)COc3ccc(C=C4SC(=S)NC4=O)cc32)c1 (stereo not drawn) [Example 218, 4-[1-(3,5-Dimethyl-phenyl)-ethyl]-6-(4-oxo-2-thioxo-thiazolidin-5-ylidenemethyl)-4H-1,4-benzoxazin-3-one] | 55
11 | O=C(O)CN1C(=O)COc2ccc(C=C3SC(=S)NC3=O)cc21 [Example 3, [3-Oxo-6-(4-oxo-2-thioxo-thiazolidin-5-ylidenemethyl)-2,3-dihydro-1,4-benzoxazin-4-yl]-acetic acid] | 635
12 | Cc1cc(CN2C(=O)COc3ccc(C=C4SC(=S)NC4=O)cc32)nn1C(C)(C)C [Example 326, 4-(1-tert-Butyl-5-methyl-1H-pyrazol-3-ylmethyl)-6-(4-oxo-2-hioxo-thiazolidin-5-ylidenemethyl)-4H-benzo[1,4]oxazin-3-one] | 25
13 | O=C1CSc2ccc(C=C3SC(=S)NC3=O)cc2N1 [Example 83, 6-(4-Oxo-2-thioxo-thiazolidin-5-ylidenemethyl)-4H-1,4-benzothiazin-3-one] | 260
14 | CC(C)(C)c1cc(CN2C(=O)COc3ccc(C=C4SC(=S)NC4=O)cc32)n(Cc2ccccc2)n1 [Example 327, 4-(2-Benzyl-5-tert-butyl-2H-pyrazol-3-ylmethyl)-6-(4-oxo-2-thioxo-thiazolidin-5-ylidenemethyl)-4H-benzo[1,4]oxazin-3-one] | 245
15 | 5-{4-[3-(4-Methoxy-phenyl)-propyl]-3-oxo-3,4-dihydro-2H-benzo[1,4]oxazin-6-ylmethylene}-thiazolidine-2,4-dione [Example 125] | 18
16 | CC(C)(C)c1cc(CO)cc(CN2C(=O)COc3ccc(C=C4SC(=S)NC4=O)cc32)c1 [Example 212, 4-(3-tert-Butyl-5-hydroxymethyl-benzyl)-6-(4-oxo-2-thioxo-thiazolidin-5-ylidenemethyl)-4H-1,4-benzoxazin-3-one] | 22
17 | O=C1NC(=S)SC1=Cc1ccc2c(c1)N(Cc1cccc(SC(F)(F)F)c1)C(=O)CO2 [Example 165, 6-(4-Oxo-2-thioxo-thiazolidin-5-ylidenemethyl)-4-(3-trifluoromethylsulfanyl-benzyl)-4H-1,4-benzoxazin-3-one] | 15
18 | NC(=O)c1ccc(CN2C(=O)COc3ccc(C=C4SC(=S)NC4=O)cc32)cc1 [Example 176, 4-[3-Oxo-6-(4-oxo-2-thioxo-thiazolidin-5-ylidenemethyl)-2,3-dihydro-1,4-benzoxazin-4-ylmethyl]-benzamide] | 59
19 | O=C1NC(=S)SC1=Cc1ccc2c(c1)N(Cc1cc(C(F)(F)F)cc(C(F)(F)F)c1)C(=O)CO2 [Example 185, 4-(3,5-Bis-trifluoromethyl-benzyl)-6-(4-oxo-2-thioxo-thiazolidin-5-ylidenemethyl)-4H-1,4-benzoxazin-3-one] | 102

These reach a lower IC50. Values come first.

Row | IC50 [nM] | Compound
20 | 4 | O=C1NC(=S)SC1=Cc1ccc2c(c1)N(Cc1ccc(Cl)c(Cl)c1)C(=O)CO2 [Example 178, 4-(3,4-Dichloro-benzyl)-6-(4-oxo-2-thioxo-thiazolidin-5-ylidenemethyl)-4H-1,4-benzoxazin-3-one]
21 | 2 | O=C1NC(=S)SC1=Cc1ccc2c(c1)N(Cc1ccc(F)cc1)C(=O)CO2 [Example 303, 4-(4-Fluoro-benzyl)-6-(4-oxo-2-thioxo-thiazolidin-5-ylidenemethyl)-4H-benzo[1,4]oxazin-3-one]
22 | 5 | Cc1cccc(CCN2C(=O)COc3ccc(C=C4SC(=S)NC4=O)cc32)c1 [Example 101, 6-(4-Oxo-2-thioxo-thiazolidin-5-ylidenmethyl)-4-[2-m-tolyl-ethyl]-4H-benzo[1,4]oxazin-3-one]
23 | 3 | O=C1NC(=S)SC1=Cc1ccc2c(c1)N(Cc1ccccc1CO)C(=O)CO2 [Example 24, 4-(2-Hydroxymethyl-benzyl)-6-(4-oxo-2-thioxo-thiazolidin-5-ylidenemethyl)-4H-1,4-benzoxazin-3-one]
24 | 9 | O=C1NC(=S)SC1=Cc1cc(F)c2c(c1)N(CCOc1ccc(F)cc1)C(=O)CO2 [Example 310, 8-Fluoro-4-[2-(4-fluoro-phenoxy)-ethyl]-6-(4-oxo-2-thioxo-thiazolidin-5-ylidenemethyl)-4H-benzo[1,4]oxazin-3-one]
25 | 10 | Cc1cc(C)cc(CN2C(=O)COc3ccc(C=C4SC(=S)NC4=O)cc32)c1 [Example 181, 4-(3,5-Dimethyl-benzyl)-6-(4-oxo-2-thioxo-thiazolidin-5-ylidenemethyl)-4H-1,4-benzoxazin-3-one]
26 | 6 | CC(C)(C)c1cc(CN2C(=O)COc3ccc(C=C4SC(=S)NC4=O)cc32)cc(C(C)(C)O)c1 [Example 237, 4-[3-tert-Butyl-5(1-hydroxy-1-methyl-ethyl)-benzyl]-6-(4-oxo-2-thioxo-thazolidin-5-ylmethyl)-4H-benzo[1,4]oxazin-3-one]
27 | 3 | O=C1NC(=S)S/C1=C\c1cc(F)c2c(c1)N(Cc1ccc(Cl)c(Cl)c1)C(=O)CO2 [Example 341, 4-(3,4-Dichloro-benzyl)-8-fluoro-6-[4-oxo-2-thioxo-thiazolidin-(5Z)-ylidenemethyl]-4H-benzo[1,4]oxazin-3-one]
28 | 12 | O=C1NC(=S)SC1=Cc1ccc2c(c1)N(Cc1ccc(SC(F)(F)F)cc1)C(=O)CO2 [Example 168, 6-(4-Oxo-2-thioxo-thiazolidin-5-ylidenemethyl)-4-(4-trifluoromethylsulfanyl-benzyl)-4H-1,4-benzoxazin-3-one]
29 | 8 | CN1CCN(C(=O)c2ccc(CN3C(=O)COc4ccc(/C=C5\SC(=S)NC5=O)cc43)cc2)CC1 [Example 280, 4-[4-(4-Methyl-piperazine-1-carbonyl)-benzyl]-6-[4-oxo-2-thioxo-thiazolidin-(5Z)-ylidenemethyl]-4H-benzo[1,4]oxazin-3-one]
30 | 6 | O=C1NC(=S)SC1=Cc1ccc2c(c1)N(Cc1ccc(Cl)c(Cl)c1)C(=O)CS2 [Example 198, 4-(3,4-Dichloro-benzyl)-6-(4-oxo-2-thioxo-thiazolidin-5-ylidenemethyl)-4H-1,4-benzothiazin-3-one]
31 | 4 | CN(C)S(=O)(=O)c1ccc(CN2C(=O)COc3ccc(/C=C4\SC(=S)NC4=O)cc32)cc1 [Example 264, N,N-Dimethyl-4-{3-oxo-6-[4-oxo-2-thioxo-thiazolidin-(5Z)-ylidenemethyl]-2,3-dihydro-benzo[1,4]oxazin-4-ylmethyl}-benzenesulfonamide]
32 | 8 | O=C1NC(=S)SC1=Cc1ccc2c(c1)N(Cc1ccc(Oc3cccc4ccccc34)cc1)C(=O)CO2 [Example 25, 4-[4-(Naphthalen-1-yloxy)-benzyl]-6-(4-oxo-2-thioxo-thiazolidin-5-ylidenemethyl)-4H-1,4-benzoxazin-3-one]
33 | 9 | COc1cc(CN2C(=O)COc3ccc(C=C4SC(=S)NC4=O)cc32)cc(OC)c1 [Example 26, 4-(3,5-Dimethoxy-benzyl)-6-(4-oxo-2-thioxo-thiazolidin-5-ylidenemethyl)-4H-1,4-benzoxazin-3-one]
